≈ marks a conversion by molar mass, not a printed value.
Tests used:
[1] = system: antibodies from Rabbit No. 1 produced in response to immunization with AZT-3-V:BSA; assay: Fluorescence polarization immunoassay (FPIA) for AZT, standard curve; assay type: binding; conditions: tracer AZT-3-B:FAM Isomer I, zero standard 166
Procedure: (§1) The immunogen (1 mg in 1 ml) was emulsified with an equal volume of Freund's Complete Adjuvant and injected intradermally into each of two female albino rabbits. The process was repeated in two weeks. Two weeks later, monthly subcutaneous booster injections were begun with 0.5 mg in 0.5 ml of the immunogen and 0.5 ml of Freund's Incomplete Adjuvant per animal. The rabbits were bled biweekly by a marginal ear vein technique beginning six weeks after the primary immunization. The blood collected was refrigerated, allowing clots to form, and the supernatant (antiserum) retained. The antiserum from each rabbit was collected and stored, either at -20° C. without preservative, or at 4° C. after addition of sodium azide to a final concentration of 0.1%. The same schedule was followed for each immunogen. Rabbits immunized produced antibodies to AZT.
(§2) Fluorescence Polarization Immunoassay for AZT
The following procedure illustrates the use of various materials of the invention in a preferred FPIA method.
(§3) An equal volume of precipitation reagent was added per microcentrifuge tube. The tubes were centrifuged at greater than 9,000×g for 1 minute.
(§4) (2) A 17.5 ul sample of each serum extract was brought to approximately pH 7-8 by the addition of buffer.
(§5) (4) After an appropriate incubation time, the polarization of each reaction mixture was determined using a polarization spectrofluorimeter.

[2] = system: antibodies from Rabbit No. 2 produced in response to immunization with AZT-3-V:BSA; assay: AZT microtiter plate enzyme immunoassay (EIA); assay type: binding; conditions: tracer AZT-3-V:HRPO; for Net Absorbence (B): zero standard 0.367
Procedure: as §1
To each well of a 96 well microtiter plate was added 100 ul of diluted rabbit antibodies (Example 45) to AZT-3-V:BSA prepared via active ester (Example 4) previously fractionated with ammonium sulfate. After incubation overnight, the plate was washed and 300 ul of diluted normal rabbit serum was added to each well to block any unbound sites on the plastic surface of the microtiter plate. The plate was again washed and the excess moisture removed. […] The plate was incubated for 60 minutes at room temperature. The plate was then washed and 300 ul of diluted o-phenylenediaminehydrogen peroxide substrate solution was added to each well. The color was allowed to develop for 90 minutes at room temperature in the dark. Absorbances were then measured spectrophotometrically for each well.

AZT antibodies [3] = assay: Immunological activity / tracer performance in FPIA for AZT (qualitative); assay type: binding; conditions: qualitative
Procedure: as §3, §4, §5

[4] = at high dosage levels; cited from earlier work
[5] = major metabolite of AZT; cited from earlier work
antibody to AZT = assay: Nephelometric inhibition immunoassay (NIA) for AZT; assay type: binding; conditions: qualitative
Procedure: Typically this conjugate is prepared from a high molecular weight carrier such as horse apoferritin or serum proteins.

Solubility in water = assay type: physicochemical; conditions: UV, assuming E^M275 = 8600, read-out: concentration of saturated aqueous solution
Procedure: A mixture of 25 mg AZT-3-AA (Example 19), 15 mg NOS and 15 mg DCC in 1 ml of THF was stirred two hours at room temperature, then a solution of 25 mg TME in 500 ul of THF/MeOH (9+1) was added and the mixture was stirred overnight at room temperature. The suspension was filtered through a PTFE membrane to remove dicyclohexylurea and chromatographed by TLC on silica gel-F 250 um using the solvent system CHCl3 /MeOH/HOAc (90+10+1). Three major UV-absorbing bands were located: TME, Rf =0.13, ninhydrin positive, Pauly positive, migrates with TME reference; NOS, Rf =0.33, ninhydrin negative, Pauly negative, migrates with NOS reference; and product, Rf =0.40, ninhydrin negative, Pauly positive. The band corresponding to the product was scraped, eluted with MeOH and rechromatographed on RPF 250 um using the solvent system MeOH/H2 O/HOAc (33+66+2) to remove a trace of NOS. In this second chromatography system, Rf =0.42 (product) and Rf =0.81 (NOS). The product was eluted with MeOH/THF (1+1). A saturated aqueous solution was prepared and filtered through a PTFE membrane and stored at -20° C. The saturated aqueous solution was characterized by a UV wavelength scan and concentration of the solute was calculated to be 47 ug/ml, assuming E^M275 =8600.

[6] = system: antisera to AZT, Rabbit 1 (immunized with AZT-3-V:BSA); assay: FPIA comparison of tracers, antiserum of Rabbit 1 (Table 1); assay type: binding; conditions: for Polarization Units (P × 1000): 1 pmole of tracer, antiserum at the given titer; for ED50 AZT: concentration of AZT giving 50% reduction in polarization of this tracer relative to 0 tube; for Titer [Ab]: dilution of antiserum required to obtain the given polarization units with 1 pmole of tracer
Procedure: as §1, §2, §3, §4, §5
(§6) As further illustration of the invention polyclonal antibodies were raised in two rabbits by immunization with the conjugate of Example 4 (AZT-3-V:BSA) as is more fully described in Example 45 and stored at 4° C. with 0.1% sodium azide. A number of tracers were then compared as to their performance in FPIA using the antisera raised from two rabbits.
(§7) ^(1) TITER was defined as the dilution of antiserum (i.e., [Ab])
(§8) required to obtain the given polarization units (P × 1000) with 1
(§9) required to give a 50% reduction in polarization relative to a control (0
(§10) tube) containing no unlabeled AZT.

[7] = system: antisera to AZT, Rabbit 2 (immunized with AZT-3-V:BSA); assay: FPIA comparison of tracers, antiserum of Rabbit 2 (Table 1); assay type: binding; conditions: for Polarization Units (P × 1000): 1 pmole of tracer, antiserum at the given titer; for ED50 AZT: concentration of AZT giving 50% reduction in polarization of this tracer relative to 0 tube; for Titer [Ab]: dilution of antiserum required to obtain the given polarization units with 1 pmole of tracer
Procedure: as §1, §2, §3, §4, §5, §6, §7, §8, §9, §10

AZT antibodies [8] = assay: Fluorescence quenching technique for assaying AZT; assay type: binding; conditions: qualitative
Description: Fluorescence quenching and fluorescence enhancement immunoassays are other homogeneous fluorescent assays based on the observation that some antibodies, upon binding to a fluorescent molecule, cause either an enhancement or decrease in fluorescence.

Cc1cn([C@H]2C[C@H](N=[N+]=[N-])[C@@H](CO)O2)c(=O)[nH]c1=O (single isomer, unassigned) [AZT, 3'-azido-3'-deoxythymidine]
Polarization Units (P × 1000) ([1]; AZT 0.2 uM): 155 P × 1000
Polarization Units (P × 1000) ([1]; AZT 0.6 uM): 141 P × 1000
Polarization Units (P × 1000) ([1]; AZT 1.7 uM): 118 P × 1000
Polarization Units (P × 1000) ([1]; AZT 5.0 uM): 87 P × 1000
Polarization Units (P × 1000) ([1]; AZT 14.7 uM): 61 P × 1000
% B/Bo ([2]; AZT 0.1 ng/ml): 88%
Net Absorbence (B) ([2]; AZT 0.1 ng/ml): 0.323
% B/Bo ([2]; AZT 0.4 ng/ml): 74%
Net Absorbence (B) ([2]; AZT 0.4 ng/ml): 0.273
% B/Bo ([2]; AZT 1.6 ng/ml): 56%
Net Absorbence (B) ([2]; AZT 1.6 ng/ml): 0.205
% B/Bo ([2]; AZT 6.3 ng/ml): 41%
Net Absorbence (B) ([2]; AZT 6.3 ng/ml): 0.149
% B/Bo ([2]; AZT 25.3 ng/ml): 23%
Net Absorbence (B) ([2]; AZT 25.3 ng/ml): 0.085
% B/Bo ([2]; AZT 101.1 ng/ml): 12%
Net Absorbence (B) ([2]; AZT 101.1 ng/ml): 0.044
immunological activity in FPIA for AZT (AZT antibodies [3]): immunologically active
side effects [4]: serious side effects at high dosage levels

Cc1cn([C@H]2C[C@H](N=[N+]=[N-])[C@@H](CO[C@@H]3O[C@H](C(=O)O)[C@@H](O)[C@H](O)[C@H]3O)O2)c(=O)[nH]c1=O [AZT-5'-glucuronide]
pharmacological activity [5]: believed to be pharmacologically inactive

COC(=O)C(Cc1ccc(O)cc1)NC(=O)Cn1c(=O)c(C)cn([C@H]2C[C@H](N=[N+]=[N-])[C@@H](CO)O2)c1=O (stereo partly shown) [Example 24, 2-[2-(3'-azido-3'-deoxythymid-3-yl)-acetamido]-3-(4-hydroxyphenyl)-propionic acid methyl ester]
immunological activity in FPIA for AZT (AZT antibodies [3]): immunologically active
immunological activity in NIA for AZT (antibody to AZT): immunologically active
solubility (Solubility in water): 47 µg/mL (≈ 93.5 µM)

COc1nc(NCCCn2c(=O)c(C)cn([C@H]3C[C@H](N=[N+]=[N-])[C@@H](CO)O3)c2=O)nc(Nc2ccc3c(c2)C(=O)OC32c3ccc(O)cc3Oc3cc(O)ccc32)n1 [Example 32, 3-[3-[4-(fluoresceinyl-5)-6-methoxy-s-triazin-2-yl]-aminopropyl]-3'-azido-3'-deoxythymidine]
Polarization Units (P × 1000) [6]: 179 P × 1000
ED50 AZT [6]: 3.1 µg/mL (≈ 3.98 µM)
Titer [Ab] [6]: 550
Polarization Units (P × 1000) [7]: 170 P × 1000
ED50 AZT [7]: ~ 8.0 ug/ml
Titer [Ab] [7]: 183
performance as tracer for determination of AZT by FPIA (AZT antibodies [3]): satisfactory tracer

Cc1cn([C@H]2C[C@H](N=[N+]=[N-])[C@@H](CO)O2)c(=O)n(CCCNc2nc(Cl)nc(Nc3ccc4c(c3)C(=O)OC43c4ccc(O)cc4Oc4cc(O)ccc43)n2)c1=O [Example 34, 3-[3-[4-(Fluoresceinyl-5)-6-chloro-s-triazin-2-yl]-aminopropyl]-3'-azido-3'-deoxythymidine]
Polarization Units (P × 1000) [6]: 171 P × 1000
ED50 AZT [6]: 2.0 µg/mL (≈ 2.55 µM)
Titer [Ab] [6]: 500
Polarization Units (P × 1000) [7]: 168 P × 1000
ED50 AZT [7]: 4.0 µg/mL (≈ 5.11 µM)
Titer [Ab] [7]: 140
immunological activity in FPIA for AZT (AZT antibodies [3]): immunologically active

Cc1cn([C@H]2C[C@H](N=[N+]=[N-])[C@@H](COC(=O)CCC(=O)Nc3ccc4c(c3)C(=O)OC43c4ccc(O)cc4Oc4cc(O)ccc43)O2)c(=O)[nH]c1=O [Example 41, 5-[(3'-azido-3'-deoxythymid-5'-yl)-succinamido]-fluorescein]
immunoactivity by fluorescence quenching technique (AZT antibodies [8]): Immunoactivity of the product was demonstrated

COC(=O)C(Cc1ccc(O)cc1)NC(=O)CCC(=O)OC[C@H]1O[C@@H](n2cc(C)c(=O)[nH]c2=O)C[C@@H]1N=[N+]=[N-] (stereo partly shown) [Example 43, 2-[(3'-azido-3'-deoxythymid-5'-yl)-succinamido]-3-(4-hydroxyphenyl)-propionic acid methyl ester]
immunological activity in FPIA for AZT (AZT antibodies [3]): immunologically active
immunological activity in NIA for AZT (antibody to AZT): immunologically active

Reference: patent US5380825A (Sigma Chemical Company, priority 1991, dated 1995)
